These results are taken from ChEMBL document CHEMBL3046302, “Antifungal constituents from the seeds of Allium fistulosum L” (J Agric Food Chem, 2002).

Active and inactive are the calls of the source. The calls are words filed in the database; no cut-off is given here.

For the assay, the system named is Phytophthora capsici. Put plainly: Antifungal activity against Phytophthora capsici assessed as fungal growth inhibition at 0.3 to 0.5 mM after 0.5 to 4.5 days. The class given is functional, organism-based.

As to `CCCCCCC(O)C(O)/C=C/C(O)CCCCCCC(=O)O` (configuration not stated), the “growth inhibition (GI)” value was “Active”.

As for `CCCCCCC(O)C(O)/C=C/C(O)CCCCCCC(=O)OCC(O)CO` (configuration not stated), the “growth inhibition (GI)” value was “Active”.
